Assay: Solubility of precipitated copper glycerolate
Conditions: suspended in water, pH reduced with sulphuric acid

- pH at which the suspended precipitate re-dissolved: around 4
Substance: copper (II) glycerolate [copper glycerolate]

— patent publication US9420795B2, “Glycolate formulation for preserving wood and like materials” (Matterworks One Limited, priority 2011, dated 2016)
